ED50 and ED99 data for two compounds are collected here from US4303659A, “Schistosomicidal compositions” (Pfizer Inc., priority 1979, dated 1981).

Broadly, the ED50 is the dose that gives a 50% effect, or the effect in half of the subjects.

Read-outs that look alike come from different tables or passages of the source.

The experiment concerns Puerto Rican strain of Schistosoma mansoni. Kind of experiment: Effectiveness in treatment of schistosomiasis in infected mice (worm kill after oral dosing, perfusion and liver count 14 days post treatment). The format is in vivo. Conditions: 336 h, oral gavage. The method, then:
Male mice are infected with 100 cercariae of Schistosoma mansoni and used 8-10 weeks post infection. The test compound(s) are suspended (at the desired concentration level) in a 10% solution of Cremophor EL in 0.2 M phosphate buffer at pH 7.0 (Cremophor EL is the registered trademark name of Badische Anilin und Soda-Fabrik of Ludwigshafen, West Germany for glycerol-polyethylene glycolricinoleate).
The resulting mixture is then administered to the mice by an oral gavage needle, using 0.3 ml. of the above suspension for a 30-gram animal. Fourteen days post treatment, the mice are killed by cervical dislocation and living worms are recovered from the blood vessels by perfusion. The liver is then removed and compressed between two glass plates, and the encapsulated (i.e., dead) worms are counted.
Effective doses required to kill 50% and 99% of male worms (i.e., ED50 and ED99 values, respectively) are calculated from the regression line of the dose response data.

Regarding `O=C(C1CCCCC1)N1CC(=O)N2CCc3ccccc3C2C1` (stereo not drawn) [Praziquantel, 2-cyclohexylcarbonyl-4-oxo-1,2,3,6,7,11b-hexahydro-4H-pyrazino [2,1a]isoquinoline], the median effective dose (ED50) amounted to 156 mg/kg (compound alone, dose to kill 50% of male worms, read-out: ED50) and 4.9 mg/kg (praziquantel in combination with 12.5 mg./kg. of oxamniquine, 50% of male worms killed, read-out: ED50).

Turning to `CC(C)NCC1CCc2cc(CO)c([N+](=O)[O-])cc2N1` (racemic) [Oxamniquine, dl-6-hydroxymethyl-2-isopropylaminomethyl-7-nitro-1,2,3,4-tetrahydroquinoline], the ED50 by setting is: (compound alone, dose to kill 50% of male worms) 39 mg/kg; (oxamniquine in combination with 25 mg./kg. of praziquantel, 50% of male worms killed) 8.6 mg/kg. Besides, the ED99 runs as follows: (compound alone, dose to kill 99% of male worms) 89 mg/kg; (oxamniquine in combination with 25 mg./kg. of praziquantel, 99% of male worms killed) 16.6 mg/kg.
